Active and inactive are the calls of the source.
How the values were obtained:
[1] = cytotoxicity in OV-90 ovarian cancer cells, dose response, PAX8 inhibitor project, cell-based, plate reader, dry powder, SA8 (AID 743149); type: functional
[2] = PAX2 cell-based inhibition, dose response, selectivity assay for PAX8 inhibitor project, plate reader, dry powder samples (AID 743048); type: functional;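 further: HEK293 cells carrying a WT1 promoter luciferase reporter driven by expressed Pax2; potency is for inhibition of Pax2 driven reporter signal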
[3] = PAX5 activity inhibitors, dose response, selectivity assay for PAX8 inhibitor project, cell-based, plate reader, dry powder samples (AID 743047); type: functional;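 further: HEK293 cells carrying a Pax5 driven CD19 promoter luciferase reporter; potency of inhibitors that lower reporter luminescence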
[4] = cytotoxicity dependent on PAX8, dose response, cell-based, plate reader, dry powder (AID 743049); type: functional
[5] = cytotoxicity in COV434 cells, dose response, cytotoxicity control for PAX8 inhibitor project, cell-based, plate reader, dry powder, SA7 (AID 743145); type: functional
Genome polyprotein = Genome polyprotein (dengue virus type 2, UniProt P29990); assay: Dengue-2 NS5 methyltransferase inhibitors, primary screen, biochemical, confirmation dose response (AID 588689); type: functional
[6] = biological target: T1, Mannose-6-phosphate isomerase (Homo sapiens, UniProt P34949); assay: human PMI inhibitors, high substrate, primary screen, biochemical, fluorescence intensity, high mannose 6-phosphate (AID 1220)
T1 sequence (P34949 whole entry): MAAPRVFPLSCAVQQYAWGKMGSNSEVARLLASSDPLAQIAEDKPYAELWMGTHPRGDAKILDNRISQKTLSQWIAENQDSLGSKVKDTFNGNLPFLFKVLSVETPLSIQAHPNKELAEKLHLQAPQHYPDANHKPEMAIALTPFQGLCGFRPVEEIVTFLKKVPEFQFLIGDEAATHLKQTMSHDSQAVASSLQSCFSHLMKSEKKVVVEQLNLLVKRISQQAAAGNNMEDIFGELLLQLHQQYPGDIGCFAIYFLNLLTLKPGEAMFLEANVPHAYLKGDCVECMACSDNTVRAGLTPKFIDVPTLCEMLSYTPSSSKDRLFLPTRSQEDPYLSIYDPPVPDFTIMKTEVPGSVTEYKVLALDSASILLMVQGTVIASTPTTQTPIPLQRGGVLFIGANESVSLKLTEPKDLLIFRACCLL

[7] = C. albicans growth with fluconazole, confirmation, fluorescence, retest (AID 2467); type: functional, cell-based
[8] = biological target: T1, Mannose-6-phosphate isomerase; assay: inhibitors of human PMI, primary screen, biochemical, fluorescence intensity, coupled assay (AID 1209)
[9] = biological target: Eukaryotic translation initiation factor 4E (Mus musculus, UniProt P63073); assay: eIF4E–eIF4G protein interaction inhibitors, dose response, biochemical, TR-FRET (AID 855); type: functional;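 further: potency for disrupting eIF4E binding to eIF4GI seen as loss of FRET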
[10] = NIH-3T3 fibroblast cytotoxicity, dose response, cytotoxicity control, cell-based, fluorescence, Alamar Blue, secondary assay (AID 2327); type: functional;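 further: NIH-3T3 mouse fibroblasts cultured with fluconazole at 8 µg/mL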
[11] = biological target: Glutathione-S-transferase (Schistosoma japonicum, UniProt Q26513); assay: biotin-GST/anti-GST TR-FRET signal inhibitors, dose response, artefact control for Vif-APOBEC3G degradation inhibitor project, biochemical (AID 1117362); type: functional
[12] = biological target: Induced myeloid leukemia cell differentiation protein Mcl-1 (Homo sapiens, UniProt Q07820); type: functional
Nonstructural protein 1 = Nonstructural protein 1 (Influenza A virus, UniProt Q194T2); type: functional, Influenza A virus (A/California/07/2009(H1N1))
Sequence of Nonstructural protein 1 (Q194T2 whole entry): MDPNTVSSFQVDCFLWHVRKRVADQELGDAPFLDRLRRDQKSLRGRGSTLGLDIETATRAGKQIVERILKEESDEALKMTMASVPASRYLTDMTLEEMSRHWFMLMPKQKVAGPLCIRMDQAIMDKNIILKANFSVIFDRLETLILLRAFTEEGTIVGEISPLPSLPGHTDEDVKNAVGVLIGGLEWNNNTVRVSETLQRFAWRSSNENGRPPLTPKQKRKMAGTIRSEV

Sequence of Induced myeloid leukemia cell differentiation protein Mcl-1 (Q07820 whole entry): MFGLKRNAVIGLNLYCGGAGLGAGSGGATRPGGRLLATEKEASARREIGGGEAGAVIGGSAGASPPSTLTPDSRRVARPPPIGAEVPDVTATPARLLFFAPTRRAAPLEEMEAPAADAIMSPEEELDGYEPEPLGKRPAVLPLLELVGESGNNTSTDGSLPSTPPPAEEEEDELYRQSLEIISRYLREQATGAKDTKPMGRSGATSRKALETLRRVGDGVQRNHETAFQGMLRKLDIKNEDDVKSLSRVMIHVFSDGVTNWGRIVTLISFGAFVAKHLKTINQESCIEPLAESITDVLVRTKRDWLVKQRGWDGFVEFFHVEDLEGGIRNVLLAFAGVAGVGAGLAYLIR
Sequence of Genome polyprotein (P29990 2492-3391 limits assumed): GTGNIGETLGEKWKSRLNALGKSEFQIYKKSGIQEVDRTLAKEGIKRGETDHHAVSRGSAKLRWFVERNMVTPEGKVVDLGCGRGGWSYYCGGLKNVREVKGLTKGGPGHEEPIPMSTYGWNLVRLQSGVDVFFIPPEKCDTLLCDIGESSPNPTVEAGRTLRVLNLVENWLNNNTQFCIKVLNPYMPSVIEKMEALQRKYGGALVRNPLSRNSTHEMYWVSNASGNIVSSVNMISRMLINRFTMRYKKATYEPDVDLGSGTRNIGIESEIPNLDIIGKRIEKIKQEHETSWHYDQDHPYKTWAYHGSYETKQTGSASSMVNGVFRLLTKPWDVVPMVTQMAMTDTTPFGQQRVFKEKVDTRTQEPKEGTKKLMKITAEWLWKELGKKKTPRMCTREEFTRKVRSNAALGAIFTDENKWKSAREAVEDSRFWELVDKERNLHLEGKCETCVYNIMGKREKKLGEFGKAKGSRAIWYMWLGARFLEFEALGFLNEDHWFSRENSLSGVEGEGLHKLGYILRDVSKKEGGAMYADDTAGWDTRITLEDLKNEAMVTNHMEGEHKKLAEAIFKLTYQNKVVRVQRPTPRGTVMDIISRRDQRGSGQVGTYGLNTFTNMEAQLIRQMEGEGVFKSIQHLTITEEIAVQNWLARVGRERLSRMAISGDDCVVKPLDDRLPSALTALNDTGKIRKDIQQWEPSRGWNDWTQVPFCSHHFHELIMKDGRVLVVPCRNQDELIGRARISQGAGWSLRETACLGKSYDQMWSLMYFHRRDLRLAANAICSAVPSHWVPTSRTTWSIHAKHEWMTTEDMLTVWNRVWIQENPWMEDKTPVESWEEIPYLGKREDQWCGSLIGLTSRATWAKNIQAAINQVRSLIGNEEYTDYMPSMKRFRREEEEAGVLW
Sequence of Eukaryotic translation initiation factor 4E (P63073 whole entry): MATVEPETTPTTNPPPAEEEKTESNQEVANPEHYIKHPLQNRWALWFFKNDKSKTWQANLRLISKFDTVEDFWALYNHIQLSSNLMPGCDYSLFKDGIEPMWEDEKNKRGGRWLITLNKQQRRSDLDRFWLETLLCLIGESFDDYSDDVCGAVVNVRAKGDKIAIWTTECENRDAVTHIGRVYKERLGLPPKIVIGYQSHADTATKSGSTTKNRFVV
Sequence of Glutathione-S-transferase (Q26513 whole entry): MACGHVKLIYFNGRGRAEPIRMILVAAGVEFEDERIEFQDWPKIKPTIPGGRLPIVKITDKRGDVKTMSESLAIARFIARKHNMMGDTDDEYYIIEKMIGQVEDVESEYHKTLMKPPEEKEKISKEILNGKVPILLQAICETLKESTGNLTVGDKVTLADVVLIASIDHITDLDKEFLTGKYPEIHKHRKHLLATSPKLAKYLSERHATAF

COc1cccc(C#Cc2ccc([C@@H]3[C@@H](C#N)N(C(=O)C4CCCCC4)[C@@H]3CO)cc2)c1
active: AC50 [1] 57.3 µM | AC50 [2] 19.9 µM | AC50 [3] 30.5 µM | AC50 [4] 25.8 µM | AC50 [5] 69.6 µM

CCn1c(C)nc2cc(C(=O)N/N=C/c3ccc(O)c(O)c3O)ccc21
active: IC50 (Genome polyprotein) 21.7 µM | IC50 [6] 8.47 µM | EC50 [7] 1.6 µM | IC50 [8] 7.02 µM | IC50 [9] 27.5 µM | EC50 [10] 104 µM | IC50 [11] 45 µM | IC50 [12] > 54 µM | IC50 (Nonstructural protein 1) 16.6 µM

— ChEMBL document CHEMBL1201862, “PubChem BioAssay data set” (2004)
